Results on five molecules are retold here after ChEMBL document CHEMBL4622931, “Potent dual EGFR/Her4 tyrosine kinase inhibitors containing novel (1,2-dithiolan-4-yl)acetamides” (Bioorg Med Chem Lett, 2020).

For data set [1], the system named is MDA-MB-231. In words: Cytotoxicity against human MDA-MB-231 cells assessed as growth inhibition incubated for 48 hrs by SRB assay. The conditions noted are these: MDA-MB-231, 48 h. In kind it is functional.
For data set [2], the system named is MOLT-4. In words: Cytotoxicity against human MOLT4 cells assessed as growth inhibition incubated for 48 hrs by SRB assay. In kind it is functional. The conditions noted are these: MOLT-4, 48 h. Background: The SRB assay estimates cell density from bound dye.
The test system of data set [3] is SR. In words: Cytotoxicity against human SR cells assessed as growth inhibition incubated for 48 hrs by SRB assay. In kind it is functional.
The test system of data set [4] is HCT-116. The data set is described as follows: Cytotoxicity against human HCT116 cells assessed as growth inhibition incubated for 48 hrs by SRB assay. In kind it is functional. To be noted: HCT-116, 48 h.
Data set [5] concerns K562. The data set is described as follows: Cytotoxicity against human K562 cells assessed as growth inhibition incubated for 48 hrs by SRB assay. In kind it is functional. To be noted: K562, 48 h.
For data set [6], the target named is T1, Epidermal growth factor receptor (Homo sapiens, UniProt P00533). In words: Inhibition of wild type EGFR (unknown origin) in presence of radiolabelled gammaATP by radioisotope filter binding assay.
Data set [7] relates to DU-145. In words: Cytotoxicity against human DU145 cells assessed as growth inhibition incubated for 48 hrs by SRB assay. In kind it is functional. To be noted: DU-145, 48 h.
The target of data set [8] is T2, Receptor tyrosine-protein kinase erbB-4 (Homo sapiens, UniProt Q15303). The data set is described as follows: Inhibition of HER4 (unknown origin) in presence of radiolabelled gammaATP by radioisotope filter binding assay.
Data set [9] relates to PC-3. The data set is described as follows: Cytotoxicity against human PC3 cells assessed as growth inhibition incubated for 48 hrs by SRB assay. To be noted: PC-3, 48 h. In kind it is functional.
Data set [10] concerns NCI-H226. The data set is described as follows: Cytotoxicity against human NCI-H226 cells assessed as growth inhibition incubated for 48 hrs by SRB assay. In kind it is functional. To be noted: NCI-H226, 48 h.
The test system of data set [11] is M14. In words: Cytotoxicity against human M14 cells assessed as growth inhibition incubated for 48 hrs by SRB assay. To be noted: M14, 48 h. In kind it is functional.
Data set [12] has as its system SK-MEL-28. The data set is described as follows: Cytotoxicity against human SK-MEL-28 cells assessed as growth inhibition incubated for 48 hrs by SRB assay. In kind it is functional. The conditions noted are these: SK-MEL-28, 48 h.
The target in data set [13] is T3, Receptor tyrosine-protein kinase erbB-2 (Homo sapiens, UniProt P04626). In words: Inhibition of HER2 (unknown origin) in presence of radiolabelled gammaATP by radioisotope filter binding assay.
In data set [14] the target is T4, Epidermal growth factor receptor (Homo sapiens, UniProt P00533, L858R). In words: Inhibition of EGFR L858R mutant (unknown origin) in presence of radiolabelled gammaATP by radioisotope filter binding assay.
The subject of data set [15] is NCI-H460. In words: Cytotoxicity against human NCI-H460 cells assessed as growth inhibition incubated for 48 hrs by SRB assay. In kind it is functional. To be noted: NCI-H460, 48 h.
The test system of data set [16] is MDA-MB-468. In words: Cytotoxicity against human MDA-MB-468 cells assessed as growth inhibition incubated for 48 hrs by SRB assay. In kind it is functional. The conditions noted are these: MDA-MB-468, 48 h.
Data set [17] relates to Hs-578T. The data set is described as follows: Cytotoxicity against human Hs578T cells assessed as growth inhibition incubated for 48 hrs by SRB assay. In kind it is functional.
The subject of data set [18] is MCF7. In words: Cytotoxicity against human MCF7 cells assessed as growth inhibition incubated for 48 hrs by SRB assay. The conditions noted are these: MCF7, 48 h. In kind it is functional.
Data set [19] deals with Epidermal growth factor receptor (Homo sapiens, UniProt P00533, EX19DEL). The data set is described as follows: Inhibition of EGFR ex19del mutant (unknown origin) in presence of radiolabelled gammaATP by radioisotope filter binding assay.
The test system of data set [20] is SF-268. In words: Cytotoxicity against human SF268 cells assessed as growth inhibition incubated for 48 hrs by SRB assay. In kind it is functional. The conditions noted are these: SF-268, 48 h.
Data set [21] deals with CCRF-CEM. In words: Cytotoxicity against human CCRF-CEM cells assessed as growth inhibition incubated for 48 hrs by SRB assay. In kind it is functional.
Data set [22] deals with Epidermal growth factor receptor (Homo sapiens, UniProt P00533, L858R/T790M). In words: Inhibition of EGFR L858R/T790M mutant (unknown origin) in presence of radiolabelled gammaATP by radioisotope filter binding assay.
A short description of data set [23]: Toxicity in NMRI mouse xenografted with human HCT116 cells assessed as toxic signs at 10 mg/kg, ip administered for 14 days and observed on day 14. To be noted: in vivo, 336 h. In kind it is organism-based, HCT-116. (A xenograft is tissue or cells of one species grown in another, often human tumour cells in immunodeficient mice.)
Data set [24] is described as follows: Toxicity in NMRI mouse xenografted with human NCI-H460 cells assessed as weight loss at 10 mg/kg, ip administered for 14 days and observed on day 14. In kind it is organism-based. The conditions noted are these: in vivo, 336 h.
Data set [25] addresses T1, Epidermal growth factor receptor. In words: Inhibition of recombinant human N-terminal GST-tagged EGFR (669 to 1210 residues) expressed in baculovirus expression system by competitive binding assay.
The test system of data set [26] is NCI-H460. In words: Antitumor activity against human NCI-H460 cells loaded in hollow fibers implanted intraperitoneally in NMRI mouse assessed as reduction in cell viability at 10 mg/kg, ip administered for 14 days by celltiter glo assay. In kind it is functional, organism-based. Background: Cellular ATP, detected with luciferase, serves as a proxy for viable cell number.

The target of data set [27] is Receptor tyrosine-protein kinase erbB-3 (Homo sapiens, UniProt P21860). In words: Inhibition of recombinant human wild type partial length HER3 (684 to 987 residues) expressed in mammalian expression system by competitive binding assay.
A short description of data set [28]: Toxicity in NMRI mouse xenografted with human NCI-H460 cells assessed as toxic signs at 10 mg/kg, ip administered for 14 days and observed on day 14. The conditions noted are these: in vivo, 336 h. In kind it is organism-based.
Data set [29] concerns the target T4, Epidermal growth factor receptor. In words: Inhibition of recombinant human partial length EGFR L858R mutant (669 to 1011 residues) expressed in bacterial expression system by competitive binding assay.
For data set [30], the target named is T2, Receptor tyrosine-protein kinase erbB-4. In words: Inhibition of recombinant human wild type partial length HER4 (690 to 994 residues) expressed in bacterial expression system by competitive binding assay.
Data set [31] in a line: Toxicity in NMRI mouse xenografted with human MOLT4 cells assessed as weight loss at 10 mg/kg, ip administered for 14 days and observed on day 14. The conditions noted are these: in vivo, 336 h. In kind it is organism-based, MOLT-4.
A short description of data set [32]: Toxicity in NMRI mouse xenografted with human MOLT4 cells assessed as toxic signs at 10 mg/kg, ip administered for 14 days and observed on day 14. In kind it is organism-based, MOLT-4. To be noted: in vivo, 336 h.
Data set [33] in a line: Toxicity in NMRI mouse xenografted with human HCT116 cells assessed as weight loss at 10 mg/kg, ip administered for 14 days and observed on day 14. In kind it is organism-based, HCT-116. The conditions noted are these: in vivo, 336 h.
Data set [34] addresses T3, Receptor tyrosine-protein kinase erbB-2.
Description: Inhibition of recombinant human N-terminal His-tagged HER2 (676 to 1255 residues) expressed in baculovirus expression system by competitive binding assay
The target in data set [35] is T2, Receptor tyrosine-protein kinase erbB-4.
Description: Inhibition of recombinant human N-terminal GST-tagged HER4 (676 to 1308 residues) expressed in baculovirus expression system by competitive binding assay
In data set [36] the test system is MOLT-4. In words: Antitumor activity against human MOLT4 cells loaded in hollow fibers implanted intraperitoneally in NMRI mouse assessed as reduction in cell viability at 10 mg/kg, ip administered for 14 days by celltiter glo assay. In kind it is functional, organism-based.
Data set [37] has as its target T4, Epidermal growth factor receptor. In words: Inhibition of recombinant human N-terminal GST-tagged EGFR L858R mutant (669 to 1210 residues) expressed in baculovirus expression system by competitive binding assay.

Active and inactive are the calls of the source. The calls are words filed in the database; no cut-off is given here.

T3 sequence (P04626 whole entry): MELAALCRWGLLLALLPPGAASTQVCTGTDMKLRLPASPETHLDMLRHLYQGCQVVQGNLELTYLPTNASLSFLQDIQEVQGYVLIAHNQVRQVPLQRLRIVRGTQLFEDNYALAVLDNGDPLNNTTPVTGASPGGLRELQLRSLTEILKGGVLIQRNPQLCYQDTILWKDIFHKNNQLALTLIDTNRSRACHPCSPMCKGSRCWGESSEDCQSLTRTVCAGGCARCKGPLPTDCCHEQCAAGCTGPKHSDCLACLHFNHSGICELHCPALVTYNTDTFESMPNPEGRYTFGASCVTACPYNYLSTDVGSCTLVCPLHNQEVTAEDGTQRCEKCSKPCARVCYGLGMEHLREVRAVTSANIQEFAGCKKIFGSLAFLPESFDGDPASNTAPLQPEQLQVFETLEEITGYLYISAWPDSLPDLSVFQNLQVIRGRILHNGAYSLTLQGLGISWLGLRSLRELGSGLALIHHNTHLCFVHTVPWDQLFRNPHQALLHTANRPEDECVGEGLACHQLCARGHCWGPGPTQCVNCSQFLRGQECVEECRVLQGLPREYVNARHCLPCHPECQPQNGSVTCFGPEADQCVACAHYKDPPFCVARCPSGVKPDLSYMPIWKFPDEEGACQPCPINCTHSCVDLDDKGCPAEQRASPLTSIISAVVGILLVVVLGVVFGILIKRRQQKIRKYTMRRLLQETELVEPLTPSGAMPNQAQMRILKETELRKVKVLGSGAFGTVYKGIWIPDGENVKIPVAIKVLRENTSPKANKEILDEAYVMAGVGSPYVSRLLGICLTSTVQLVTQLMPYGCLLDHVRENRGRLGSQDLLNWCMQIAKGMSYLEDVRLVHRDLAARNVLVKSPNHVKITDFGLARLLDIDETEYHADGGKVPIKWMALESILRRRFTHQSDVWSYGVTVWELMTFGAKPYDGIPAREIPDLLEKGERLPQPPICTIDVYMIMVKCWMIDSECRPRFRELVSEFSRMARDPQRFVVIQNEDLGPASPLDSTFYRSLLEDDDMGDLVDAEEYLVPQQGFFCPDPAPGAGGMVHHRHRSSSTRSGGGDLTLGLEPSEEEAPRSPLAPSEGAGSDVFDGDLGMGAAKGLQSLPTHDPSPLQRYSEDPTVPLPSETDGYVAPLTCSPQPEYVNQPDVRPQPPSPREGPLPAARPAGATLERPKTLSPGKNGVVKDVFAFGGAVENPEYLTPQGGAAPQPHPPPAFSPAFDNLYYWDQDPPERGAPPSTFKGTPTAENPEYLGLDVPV
T4 sequence (P00533 25-1210 L858R limits assumed): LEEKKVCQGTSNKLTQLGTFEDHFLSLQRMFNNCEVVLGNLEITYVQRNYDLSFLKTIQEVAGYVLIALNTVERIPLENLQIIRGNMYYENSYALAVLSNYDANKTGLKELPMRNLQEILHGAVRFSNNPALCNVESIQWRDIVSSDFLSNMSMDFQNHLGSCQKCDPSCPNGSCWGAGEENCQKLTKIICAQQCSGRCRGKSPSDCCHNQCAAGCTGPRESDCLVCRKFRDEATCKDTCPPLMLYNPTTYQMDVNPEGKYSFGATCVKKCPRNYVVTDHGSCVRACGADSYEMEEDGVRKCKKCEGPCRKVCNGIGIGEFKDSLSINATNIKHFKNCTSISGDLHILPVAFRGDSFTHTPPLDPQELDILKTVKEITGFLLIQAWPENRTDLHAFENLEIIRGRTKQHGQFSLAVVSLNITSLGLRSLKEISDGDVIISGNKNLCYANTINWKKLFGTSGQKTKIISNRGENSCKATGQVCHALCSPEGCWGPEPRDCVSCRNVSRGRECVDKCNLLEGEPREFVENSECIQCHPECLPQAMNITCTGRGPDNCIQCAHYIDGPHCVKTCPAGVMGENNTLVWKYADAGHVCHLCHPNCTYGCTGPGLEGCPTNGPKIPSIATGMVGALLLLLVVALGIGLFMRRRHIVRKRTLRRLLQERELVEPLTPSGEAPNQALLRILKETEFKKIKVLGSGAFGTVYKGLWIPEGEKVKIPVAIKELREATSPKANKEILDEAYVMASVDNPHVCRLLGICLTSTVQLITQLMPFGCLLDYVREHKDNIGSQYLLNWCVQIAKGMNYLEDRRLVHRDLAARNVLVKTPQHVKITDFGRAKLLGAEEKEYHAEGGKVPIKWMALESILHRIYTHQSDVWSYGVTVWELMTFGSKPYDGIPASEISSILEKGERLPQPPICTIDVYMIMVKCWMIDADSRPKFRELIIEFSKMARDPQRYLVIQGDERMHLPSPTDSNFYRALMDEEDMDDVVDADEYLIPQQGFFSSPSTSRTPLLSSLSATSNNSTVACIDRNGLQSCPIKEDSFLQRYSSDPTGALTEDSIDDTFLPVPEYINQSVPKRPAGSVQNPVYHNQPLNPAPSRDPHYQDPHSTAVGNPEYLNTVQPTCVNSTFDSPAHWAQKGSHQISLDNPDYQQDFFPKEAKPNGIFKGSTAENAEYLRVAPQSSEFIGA
T1 sequence (P00533 whole entry): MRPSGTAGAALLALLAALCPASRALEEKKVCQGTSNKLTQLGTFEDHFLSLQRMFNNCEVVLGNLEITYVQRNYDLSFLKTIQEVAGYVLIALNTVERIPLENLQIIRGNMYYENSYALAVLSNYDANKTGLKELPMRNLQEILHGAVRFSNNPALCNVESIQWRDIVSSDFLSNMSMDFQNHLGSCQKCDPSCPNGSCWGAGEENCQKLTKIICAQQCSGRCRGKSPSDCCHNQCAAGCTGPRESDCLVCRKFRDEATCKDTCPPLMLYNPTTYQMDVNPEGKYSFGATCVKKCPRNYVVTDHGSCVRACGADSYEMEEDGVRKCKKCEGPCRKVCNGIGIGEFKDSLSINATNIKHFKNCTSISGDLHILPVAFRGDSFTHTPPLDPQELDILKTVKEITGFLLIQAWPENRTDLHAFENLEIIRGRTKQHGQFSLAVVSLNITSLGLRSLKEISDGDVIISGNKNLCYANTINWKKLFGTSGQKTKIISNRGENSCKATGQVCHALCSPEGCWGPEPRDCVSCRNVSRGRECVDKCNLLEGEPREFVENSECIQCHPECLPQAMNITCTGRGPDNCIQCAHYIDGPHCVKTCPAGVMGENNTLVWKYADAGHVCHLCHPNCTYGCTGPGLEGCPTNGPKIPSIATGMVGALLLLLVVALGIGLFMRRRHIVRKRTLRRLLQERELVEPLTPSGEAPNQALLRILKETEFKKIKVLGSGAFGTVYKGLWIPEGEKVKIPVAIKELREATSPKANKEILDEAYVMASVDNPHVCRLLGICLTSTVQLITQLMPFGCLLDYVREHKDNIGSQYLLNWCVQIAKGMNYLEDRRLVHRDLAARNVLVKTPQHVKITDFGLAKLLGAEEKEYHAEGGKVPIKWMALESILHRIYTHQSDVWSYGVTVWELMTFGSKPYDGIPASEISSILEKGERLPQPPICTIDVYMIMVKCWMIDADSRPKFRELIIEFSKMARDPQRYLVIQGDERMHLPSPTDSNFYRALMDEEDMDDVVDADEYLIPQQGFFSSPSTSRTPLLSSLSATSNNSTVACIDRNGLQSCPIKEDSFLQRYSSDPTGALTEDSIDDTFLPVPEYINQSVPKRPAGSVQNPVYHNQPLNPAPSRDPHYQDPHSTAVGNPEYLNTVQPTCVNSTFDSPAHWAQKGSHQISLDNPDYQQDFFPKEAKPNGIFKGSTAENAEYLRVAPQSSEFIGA
Sequence of Epidermal growth factor receptor (Homo sapiens, UniProt P00533, EX19DEL) (P00533 whole entry, looked up, stated change not applied): as the sequence (P00533 whole entry) above

The term GI50 denotes the concentration at which growth is held to half of that of the control. Broadly, the TGI is the concentration giving total growth inhibition. The IC50 is the point on the concentration scale where inhibition reaches its midpoint. For `N#Cc1cnc2cc(OC[C@H](O)CO)c(NC(=O)CC3CSSC3)cc2c1Nc1ccc(OCc2cccc(F)c2)c(Cl)c1`, the GI50 in [1] worked out at 208 nM; in data set [2], 93 nM; in data set [3], 132 nM; in data set [4] it was 98 nM; in data set [5] it was 148 nM; in [7] it was 637 nM. Besides, the GI50 in data set [9] was found to be 174 nM; in data set [10] it was 690 nM; in data set [11] it was 141 nM; in [12], 129 nM; in data set [15], 128 nM; in [16] it was 120 nM. In addition, the GI50 in [17] came to 512 nM; in data set [18], 91 nM; in [20], 404 nM; in data set [21], 112 nM. In addition, the TGI in data set [1] was determined as 722 nM; in data set [2] it was 209 nM; in data set [3], 608 nM; in [4], 209 nM; in [5], 454 nM; in data set [7], 1360 nM. Moreover, the TGI was determined as 455 nM in [9]; 1830 nM in data set [10]; 482 nM in data set [11]; 350 nM in data set [12]; 312 nM in [15]; 385 nM in data set [16]. Also, the TGI in data set [17] amounted to 1740 nM; in [18] it was 193 nM; in [20], 1320 nM; in data set [21], 283 nM. Further, the IC50 in data set [6] was 2 nM; in [8] it was 0.19 nM; in data set [13], 104 nM; in data set [14] it was 387 nM; in data set [19], 1280 nM.

On to `N#Cc1cnc2cc(OC[C@@H](O)CO)c(NC(=O)C3CSSC3)cc2c1Nc1ccc(OCc2cccc(F)c2)c(Cl)c1`, for which the IC50 is 1.5 nM in data set [6]; 0.45 nM in data set [8]; more than 10000 nM in [22]; 51 nM in data set [14]; 204 nM in data set [19].

In the case of `N#Cc1cnc2ccc(NC(=O)C3CSSC3)cc2c1Nc1ccc(OCc2cccc(F)c2)c(Cl)c1`, the half-maximal inhibitory concentration (IC50) in data set [8] came out at 284 nM.

In the case of `C=CC(=O)Nc1cc2c(Nc3ccc(F)c(Cl)c3)ccnc2cc1OCCC1CC12CCN(C)CC2` (configuration not stated), the IC50 in data set [8] amounted to 1.2 nM.

The Kd is the constant that tells how readily two partners part at equilibrium. With `N#Cc1cnc2cc(OC[C@@H](O)CO)c(NC(=O)CC3CSSC3)cc2c1Nc1ccc(OCc2cccc(F)c2)c(Cl)c1`, the 50% growth inhibitory concentration (GI50) in data set [1] worked out at 103 nM; in [2] it was 74 nM; in [3], 66 nM; in data set [4], 88 nM; in data set [5] it was 94 nM; in data set [7] it was 134 nM. The GI50 in [9] is 89 nM; in data set [10], 198 nM; in data set [11] it was 83 nM; in [12], 63 nM; in [15] it was 103 nM; in [16], 70 nM. The concentration for 50% growth inhibition (GI50) in [17] was 105 nM; in [18], 86 nM; in data set [20], 83 nM; in [21], 42 nM. Besides, the TGI is 237 nM in [1]; 175 nM in data set [2]; 246 nM in data set [3]; 204 nM in [4]; 208 nM in [5]; 424 nM in data set [7]. In addition, the TGI in [9] stood at 204 nM; in [10] it was 883 nM; in [11] it was 251 nM; in [12] it was 136 nM; in data set [15] it was 263 nM; in data set [16], 155 nM. Moreover, the TGI was found to be 282 nM in [17], 182 nM in data set [18], 778 nM in [20] and 146 nM in [21]. Also, the Activity entry in [23], in data set [24], in data set [28], in data set [31], in [32] and in [33] was “Non-Toxic” throughout. Further, the IC50 in data set [6] is 2.4 nM; in data set [25], 12.3 nM; in data set [8] it was 0.03 nM; in [22], more than 10000 nM; in data set [13], 121 nM; in data set [14] it was 419 nM. The IC50 in data set [34] is 112 nM; in data set [35] it was 12.2 nM; in data set [19] it was 1990 nM; in data set [37], 18.1 nM. Moreover, the inhibition result in [26] and in data set [36] was “Active” each time. In addition, the values for the Kd in data set [27], in [29] and in data set [30] were 380 nM, 9.2 nM and 6 nM, respectively.
